Holding throughout (test): Bliss excess, mean over the matrix (fraction); higher = more synergy
In experiment [1] the test system is KARPAS-1106P (B-Cell Non-Hodgkin's Lymphoma). The method in brief:
(§1)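 Bliss excess equals the observed combination effect minus the expected value EA + EB − EA·EB, where EA and EB are the effects of each agent alone. Combination Emax is the second-highest inhibition within the matrix. Inhibition was scaled from CellTiter-Glo 2.0 luminescence, with 0 set by vehicle wells and 1 by blank wells, after 72 hours of two-drug dosing of cells plated in 1536-well plates.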

The subject of experiment [2] is KARPAS-620 (Plasma Cell Myeloma). The method in brief:
as §1

Experiment [3] has as its system KM-H2 (Hodgkin's Lymphoma). The method, boiled down:
as §1

For a further experiment, the system named is J82 (Bladder Carcinoma). The method, boiled down:
as §1

The subject of experiment [4] is NCI-H1299 (Non-Small Cell Lung Carcinoma). The method in brief:
as §1

The test system of the next experiment is SN12C (Kidney Carcinoma). The method in brief:
as §1

The subject of a further experiment is ES7 (Ewing's Sarcoma). The method in brief:
as §1

Experiment [5] relates to OCI-AML2 (Acute Myeloid Leukemia). The method, boiled down:
as §1

The test system of experiment [6] is MDA-MB-157 (Breast Carcinoma). The method, boiled down: as §1
For experiment [7], the system named is DB (B-Cell Non-Hodgkin's Lymphoma). The method in brief:
as §1

Experiment [8] relates to 697 (B-Lymphoblastic Leukemia). The method in brief:
as §1

Experiment [9] concerns NCI-H1694 (Small Cell Lung Carcinoma). The method, boiled down: as §1
For experiment [10], the system named is IHH-4 (Thyroid Gland Carcinoma). The method in brief: as §1
For experiment [11], the system named is SW1088 (Low Grade Glioma). The method, boiled down: as §1
The test system of experiment [12] is KATOIII (Gastric Carcinoma). The method, boiled down: as §1
Experiment [13] concerns CFPAC-1 (Pancreatic Carcinoma). The method, boiled down:
as §1

Experiment [14] relates to SUIT-2 (Pancreatic Carcinoma). The method in brief:
as §1

A further experiment concerns DSH1 (Bladder Carcinoma). The method, boiled down: as §1
The test system of experiment [15] is LS-513 (Colorectal Carcinoma). The method in brief:
as §1

In experiment [16] the test system is COR-L95 (Small Cell Lung Carcinoma). The method in brief:
as §1

6 compounds from the supplement of paper PMC11061612 can be followed below.

Consider `CC1(C)CCC(CN2CCN(c3ccc(C(=O)NS(=O)(=O)c4ccc(NCC5CCOCC5)c([N+](=O)[O-])c4)c(Oc4cnc5[nH]ccc5c4)c3)CC2)=C(c2ccc(Cl)cc2)C1` [Venetoclax] + C[C@@H]1COCCN1C2=NC(=NC(=C2)C3(CC3)[S@](=N)(=O)C)C4=C5C=CNC5=NC=C4 [AZD6738] (first compound max 1 µM, 7x7, partner max 10 µM), for which the Bliss excess was -0.0213 in experiment [1]; 0.0235 in experiment [2]; 0.0384 in experiment [3]; 0.0106 with J82 (Bladder Carcinoma); -0.0203 in [4]; -0.047 in the experiment with SN12C (Kidney Carcinoma). The Bliss excess was 0.0245 with ES7 (Ewing's Sarcoma); 0.0166 in experiment [5]; -0.0195 in experiment [6]; 0.009 in experiment [7]; 0.0052 in experiment [8]; 0.0443 in experiment [9]. Further, the Bliss excess in experiment [10] is -0.0482; in [11], -0.0327; in [12], -0.0859; in experiment [13], 0.015; in experiment [14], -0.0491; in the experiment with DSH1 (Bladder Carcinoma), -0.0662. Also, the Bliss excess in experiment [15] was -0.0591; in [16], -0.0056.
For the compound `Cn1cnc2c(F)c(Nc3ccc(Br)cc3Cl)c(C(=O)NOCCO)cc21` [Selumetinib] + CCN(CCO)CCCOc1ccc2c(Nc3cc(CC(=O)Nc4cccc(F)c4)[nH]n3)ncnc2c1 [AZD2811] (first compound max 10 µM, 7x7, partner max 1 µM), the Bliss excess in [1] is 0.0245; in experiment [2] it was 0.193; in experiment [3] it was -0.0193; with J82 (Bladder Carcinoma), -0.0611; in [4] it was -0.0205; with SN12C (Kidney Carcinoma), -0.0444. The Bliss excess in the experiment on ES7 (Ewing's Sarcoma) was -0.0524; in [5] it was 0.0545; in [6], -0.0064; in [7], -0.125; in [8], 0.0059; in experiment [9], 0.0136. The Bliss excess in experiment [10] was -0.0209; in experiment [11], -0.0456; in [12], -0.0148; in experiment [13], -0.0529; in experiment [14] it was -0.0526; in the experiment on DSH1 (Bladder Carcinoma), 0.0022. Also, the figures for the Bliss excess in [15] and in experiment [16] were -0.0184 and -0.0075, respectively.
For `COc1cccc(OCCCN)c1-c1cc(Nc2cnc(C#N)cn2)n[nH]1` [Prexasertib] + C[C@@H]1COCCN1C2=NC(=NC(=C2)C3(CC3)[S@](=N)(=O)C)C4=C5C=CNC5=NC=C4 [AZD6738] (first compound max 1 µM, 7x7, partner max 10 µM), the Bliss excess in experiment [1] was -0.0714; in experiment [2], -0.0375; in experiment [3], -0.0214; in the experiment on J82 (Bladder Carcinoma), -0.0198; in experiment [4] it was -0.0013; in the experiment with SN12C (Kidney Carcinoma), 0.0012. Moreover, the Bliss excess was -0.0416 in the experiment with ES7 (Ewing's Sarcoma); -0.021 in experiment [5]; -0.0256 in experiment [6]; -0.0569 in [7]; 0.0031 in experiment [8]; -0.06 in experiment [9]. Besides, the Bliss excess is 0.0132 in [10]; -0.0192 in experiment [11]; 0.0124 in experiment [12]; -0.0284 in [13]; -0.03 in experiment [14]; -0.0083 in the experiment on DSH1 (Bladder Carcinoma). In addition, the Bliss excess in experiment [15] is -0.0183; in [16], 0.0074.
`NC1(C(=O)N[C@@H](CCO)c2ccc(Cl)cc2)CCN(c2ncnc3[nH]ccc23)CC1` [Capivasertib] + C[C@@H]1COCCN1C2=NC(=NC(=C2)C3(CC3)[S@](=N)(=O)C)C4=C5C=CNC5=NC=C4 [AZD6738] (first compound max 10 µM, 7x7, partner max 10 µM): the Bliss excess in experiment [1] was -0.0661; in experiment [2], -0.0384; in [3], -0.0181; in the experiment on J82 (Bladder Carcinoma) it was -0.065; in experiment [4] it was -0.0309; in the experiment on SN12C (Kidney Carcinoma), -0.0044. In addition, the Bliss excess in the experiment on ES7 (Ewing's Sarcoma) is -0.055; in experiment [5], -0.0474; in [6] it was -0.0365; in experiment [7], -0.0769; in experiment [8], -0.0173; in experiment [9], -0.0412. Further, the Bliss excess was 0.0028 in experiment [10]; -0.0619 in experiment [11]; -0.0941 in [12]; -0.0224 in experiment [13]; -0.0351 in experiment [14]; -0.064 with DSH1 (Bladder Carcinoma). For the same compound, the Bliss excess in experiment [15] was -0.0697; in experiment [16], -0.0644.
With `CC1(C)CCC(CN2CCN(c3ccc(C(=O)NS(=O)(=O)c4ccc(NCC5CCOCC5)c([N+](=O)[O-])c4)c(Oc4cnc5[nH]ccc5c4)c3)CC2)=C(c2ccc(Cl)cc2)C1` [Venetoclax] + COc1cc(Nc2ncc3c(n2)-c2ccc(Cl)cc2C(c2c(F)cccc2OC)=NC3)ccc1C(=O)O [Alisertib] (first compound max 1 µM, 7x7, partner max 10 µM), the Bliss excess in experiment [1] is 0.103; in experiment [2], 0.284; in [3] it was 0.145; in the experiment on J82 (Bladder Carcinoma) it was -0.0336; in experiment [4], 0.0391; with SN12C (Kidney Carcinoma) it was -0.0985. Besides, the Bliss excess in the experiment with ES7 (Ewing's Sarcoma) came to 0.0686; in [5], 0.0826; in [6], 0.014; in experiment [7] it was 0.124; in experiment [8], 0.0193; in [9], 0.256. The Bliss excess was -0.0216 in experiment [10]; 0.0049 in experiment [11]; -0.0587 in experiment [12]; -0.0475 in experiment [13]; -0.0515 in experiment [14]; 0.128 in the experiment on DSH1 (Bladder Carcinoma). The values for the Bliss excess in [15] and in experiment [16] were -0.0655 and 0.134, respectively.
Take `CN(CCO)CC[C@H](CSc1ccccc1)Nc1ccc(S(=O)(=O)NC(=O)c2ccc(N3CCC([C@@H](O)c4ccccc4-c4ccc(Cl)cc4)CC3)cc2)cc1S(=O)(=O)C(F)(F)F` [AZD4320] + CCN(CCO)CCCOc1ccc2c(Nc3cc(CC(=O)Nc4cccc(F)c4)[nH]n3)ncnc2c1 [AZD2811] (first compound max 1 µM, 7x7, partner max 1 µM): the Bliss excess in [1] was 0.0326; in [2], 0.0899; in experiment [3], -0.0035; in the experiment with J82 (Bladder Carcinoma) it was -0.0304; in experiment [4], -0.0237; in the experiment on SN12C (Kidney Carcinoma), -0.0249. Besides, the Bliss excess came out at 0.0493 in the experiment on ES7 (Ewing's Sarcoma); 0.0189 in experiment [5]; 0.0101 in experiment [6]; 0.0983 in experiment [7]; 0.0021 in experiment [8]; 0.169 in [9]. Also, the Bliss excess in experiment [10] was -0.0372; in [11] it was -0.0659; in experiment [12] it was -0.0434; in experiment [13], -0.0754; in experiment [14], -0.0472; in the experiment with DSH1 (Bladder Carcinoma), 0.0821. Also, the figures for the Bliss excess in experiment [15] and in experiment [16] were -0.0584 and 0.0522, respectively.
